Measured values published in paper PMC5799093, “Proceedings of Réanimation 2018, the French Intensive Care Society International Congress” (Annals of Intensive Care, 2018).
Like-named read-outs stand apart in the source and are kept apart here.

Tests used:
[1] = Amikacin peak serum concentration (Cmax) after loading dose in patients on ECMO; format: in vivo, adult patients; settings: IV loading dose 25 mg kg total body weight; Cmax 30 min after end of infusion; VA- or VV-ECMO; n = 106
[2] = system: carbapenemase-producing Enterobacteriaceae; test: Antibiotic susceptibility of Enterobacteriaceae with decreased susceptibility to carbapenems; format: cell-based; settings: for resistant rate: CA-SFM 2015
Pseudomonas aeruginosa [3] = test: Disk diffusion susceptibility of P. aeruginosa isolated from burned patients (P-48); format: cell-based; settings: for strains resistant: 485 strains from burned patients 2012-2015, disk diffusion, FSM breakpoints
[4] = Amikacin peak serum concentration (Cmax) in ICU patients with septic shock/severe sepsis (P-52); format: in vivo, human
[5] = critically ill patients, 25 mg kg dose; ref 1 (de Montmollin et al. 2014); cited from earlier work
Method: Introduction: Amikacin infusion requires to target a peak serum concentration (Cmax) 8–10 times the minimal inhibitory concentration, corresponding to a Cmax at 60–80 mg L^−1 for the least susceptible bacteria. […] Membrane sequestration, alteration of the volume of distribution and lack of data in this population make drugs pharmacokinetics (PK) on ECMO challenging. Our study aimed to assess the prevalence of insufficient Amikacin Cmax in critically ill patients on ECMO and to identify re ...

[6] = parameters: method as in Taccone in 2010; settings: dosages of 25 mg kg; ref Taccone in 2010; cited from earlier work
Pseudomonas [7] = settings: January 2010 - June 2014
Acinetobacter baumannii [8] = settings: January 2010 - June 2014
[9] = human, in vivo
Method: Patients and methods: This study was conducted in burn center in Tunis. Patients with documented and or suspected infections were included. Were excluded pregnant women and patients with renal failure. […] For the 2nd, 3rd, 4th and 5th day, blood samples were taken before the infusion (T0), at the end (T1) and 30 min after the end of it (T2).

Escherichia-coli = test: Resistance in nosocomial urinary tract infection: Escherichia-coli (P-219); settings: January 2010 - June 2014
[10] = Fatal carbon monoxide intoxication, forensic series (P-181); settings: 29 fatal cases, toxicological analysis at autopsy
P. aeruginosa = test: Antibiotic resistance of P. aeruginosa (P-147); format: cell-based
[11] = system: Pseudomonas aeruginosa (PA); test: Antibiotic resistance of Pseudomonas aeruginosa before/after antibiotic stewardship (P-214); format: cell-based
Pseudomonas aeruginosa [12] = test: Resistance of nosocomial infection isolates: Pseudomonas aeruginosa (P-222); format: cell-based; settings: n = 14 isolates, 2016
From the text: (§1) Patients and methods: This was a retrospective study conducted within a 22-bed medical ICU of a Tunisian teaching hospital (301 beds) carried from January 1st to December 31, 2016. We recorded demographic patients’ characteristics which ICU’s stay was complicated with at least one NI. Then we described pathogens and microbiological specificities of NI.

[13] = Eight of 49 patients
Acinetobacter baumannii [14] = format: cell-based; settings: blood culture isolates 2012–2016
Method: (§2) Patients and methods: From January 2012 to December 2016, a total of 2,182 non repetitive strains were isolated from blood cultures. Incubation of blood culture vials and the detection of bacterial growth were performed by the BACTEC system. All Isolated organisms were identified on the basis of standard microbiological techniques. Antibiotic susceptibility testing was carried out by the agar disk diffusion method, and susceptibility results were interpreted using clinical breakpoints according to CA-SFM 2013 and 2015 guidelines. Data were analyzed using the SIR-system. Minimum inhibitory concentrations of colistin, imipenem and vancomycin were determined using the Etest® method (bioMérieux).

[15] = system: Extended spectrum betalactamase producing Enterobacteriaceae; test: Antibiotic resistance of ESBL producing Enterobacteriaceae (P-147); format: cell-based; settings: isolates 2015 and 2016
Acinetobacter Baumanii = test: Resistance of nosocomial infection isolates: Acinetobacter Baumanii (P-222); format: cell-based; settings: n = 39 isolates, 2016
From the text: as §1

Pseudomonas [16] = test: Resistance of VAP isolates: pseudomonas (P-224); format: cell-based; settings: 2014-2015
From the text: (§3) Patients and methods: Retrospective study spread over 2 years from January 2014 to December 2015 carried out in the resuscitation unit of the medical and surgical emergency department of CHUOran. Data utilization with Whonet software. The criteria of vap retained are those of CTINILS (May 2007).

acintobacter baumanii = test: Resistance of VAP isolates: baumanii (P-224); format: cell-based; settings: 2014-2015
From the text: as §3

Pseudomonas aeruginosa [17] = system: Pseudomonas aeruginosa
[18] = Beta-lactam plasma concentrations in children with severe sepsis or septic shock (HPLC); settings: current standard dosing
[19] = New-generation anticonvulsive drug poisoning in ICU with pharmacokinetics (P-146); format: in vivo, human; settings: membrane-stabilizing effects resulting in acute cardiac failure
From the text: Pharmacokinetics modeling and parameters were obtained using WinNonlin v.5.1 software.

Staphylococcus aureus [20] = format: cell-based; settings: blood culture isolates 2012–2016
Method: as §2

[21] = system: coagulase negative Staphylococcus; test: Resistance of nosocomial infection isolates: coagulase negative Staphylococcus (P-222); format: cell-based; settings: n = 12 isolates, 2016
From the text: as §1

Staphylococcus aureus [22] = test: Resistance in nosocomial urinary tract infection: Staphylococcus aureus (P-219); settings: January 2010 - June 2014
Acinetobacter baumanni = test: Antibiotic resistance of Acinetobacter baumanni (P-147); format: cell-based; settings: imipenem resistant isolates
[23] = Piperacillin-tazobactam 16 g day continuous infusion, PK PD target attainment; format: in vivo, critically ill patients; settings: MIC 16 mg L^−1 for piperacillin, n = 60
[24] = system: microorganisms of post-operative pneumonia; test: Susceptibility of microorganisms cultured in severe post-operative pneumonia (P-213); format: cell-based; settings: 66 patients with significant culture
Method: Patients and methods: All patients with severe POP occurring within 30 days after lung resection between January 2013 and December 2015 were included. We collected data on clinical presentation, results of microbiological investigations, antibiotic regimen and outcomes. The quality of antibiotic use was assessed using indicators previously validated in the literature.

[25] = period 2011–2014 (P2), after antibiotic stewardship, p < 0.01

NCC[C@H](O)C(=O)N[C@@H]1C[C@H](N)[C@@H](O[C@H]2O[C@H](CN)[C@@H](O)[C@H](O)[C@H]2O)[C@H](O)[C@H]1O[C@H]1O[C@H](CO)[C@@H](O)[C@H](N)[C@H]1O [Amikacin]
Cmax < 60 mg L^−1 (proportion of patients) [1]: 39% | resistant rate [2]: 57% | strains resistant (Pseudomonas aeruginosa [3]): 62% | median Cmax ([4]; median dosage 22.5 mg kg, initial injection, 191 patients): 72.1 mg·L | patients with Cmax greater than 80 mg l ([4]; of 191 patients): 53 patients | patients with Cmax less than 64 mg l ([4]; of 191 patients): 77 patients | patients not attaining target Cmax 60–80 mg L^−1 [5]: 33% | peaks above 64 mg l [6]: 70% | resistant (Pseudomonas [7]): 44% | resistant (Acinetobacter baumannii [8]): 85% | cases reaching a peak between 60 and 80 μg/ml (mean dose 26 mg kg day, 1 h infusion, 18 burned patients): 55% | total volume of distribution (range (0.28–1.32)): 0.55 L·kg | half-life time (t1 2) (range [1.42–8 h]): 4.70 h | amikacin clearance [9]: 6.4 L·h | correlation between Cpeak at day 1 and Cpeak at day 5 (r) [9]: 0.45 | resistance (Escherichia-coli): without resistance

[C-]#[O+] [carbon monoxide]
mean HbCO level [10]: 51.59%

CC(C)(O/N=C(\C(=O)N[C@@H]1C(=O)N2C(C(=O)[O-])=C(C[n+]3ccccc3)CS[C@H]12)c1csc(N)n1)C(=O)O [ceftazidim]
strains resistant (Pseudomonas aeruginosa [3]): 21% | resistance (P. aeruginosa; isolates 2015 and 2016): 10% | antibiotic resistance of PA ([11]; period 2007–2010 (P1)): 42% | antibiotic resistance of PA [11, 25]: 11% | resistance (Pseudomonas aeruginosa [12]): 33.3%

C[C@H]1O[C@@H](O[C@H]2[C@@H](O)C[C@H](O[C@H]3[C@@H](O)C[C@H](O[C@H]4CC[C@@]5(C)[C@H](CC[C@@H]6[C@@H]5C[C@@H](O)[C@]5(C)[C@@H](C7=CC(=O)OC7)CC[C@]65O)C4)O[C@@H]3C)O[C@@H]2C)C[C@H](O)[C@@H]1O [digoxin]
patients who died in the ICU [13]: 16%

C[C@@H](O)[C@H]1C(=O)N2C(C(=O)O)=C(SCCN=CN)C[C@H]12 [imipenem]
strains with MIC > 8 mg l ([2]; 39 selected bacteria): 30% | resistance rate (Acinetobacter baumannii [14]): 94% | strains resistant (Pseudomonas aeruginosa [3]): 56% | rate of resistance [15]: 2.17% | antibiotic resistance of PA ([11]; period 2007–2010 (P1)): 38% | antibiotic resistance of PA [11, 25]: 18% | resistance (Acinetobacter Baumanii): 100% | resistant (Pseudomonas [16]): 18.4% | resistant (acintobacter baumanii): 55% | resistance rate (Klebsiella pneumoniae): 15% | resistance rate (Pseudomonas aeruginosa [17]): 72% | resistant (Pseudomonas [7]): 64% | resistant (Acinetobacter baumannii [8]): 87% | resistant (Escherichia-coli): 8% | patients with insufficient plasma concentration [18]: 0%

COC[C@@H](NC(C)=O)C(=O)NCc1ccccc1 [lancosamide, lacosamide]
outcome [19]: died

COc1cccc(OC)c1C(=O)N[C@@H]1C(=O)N2[C@@H]1SC(C)(C)[C@@H]2C(=O)O [methicillin]
resistance rate (Staphylococcus aureus [20]): 70% | resistant [21]: 75% | resistant (Staphylococcus aureus [22]): 25%

colistin
susceptibility ([2]; colistin excepting with Proteus): 98% | strains susceptible (Pseudomonas aeruginosa [3]; 485 strains from burned patients, disk diffusion): 100% | sensitivity [15]: all bacterial stocks were sensitive | sensitivity (Acinetobacter baumanni): all bacterial stocks were sensitive | sensitivity (P. aeruginosa; Ceftazidim resistant isolates): all bacterial stocks were sensitive

piperacillin-tazobactam
rate of empirical target non-attainment [23]: 17% | resistant rate [2]: 87% | patients whose microorganisms were sensitive [24]: 86% | patients with insufficient plasma concentration [18]: 77%
